According to US11884747B2, “Compstatin analogs with increased solubility and improved pharmacokinetic properties” (The Trustees of the University of Pennsylvania, priority 2018, dated 2024):
Several values for one entry are separate records, joined by “and”; a condition that tells them apart may be missing. Equal entries are not always repeated. Entries after “also recorded” stand apart in the source; their conditions may differ.

What was measured:
human C3b = biological target: T1, human C3b (Homo sapiens, UniProt P01024); assay: SPR binding affinity and kinetic profile with immobilized C3b; conditions: 25 °C
T1 construct: purchased Complement Technology, Inc., Tyler, TX
T1 sequence (P01024 23-667 limits assumed): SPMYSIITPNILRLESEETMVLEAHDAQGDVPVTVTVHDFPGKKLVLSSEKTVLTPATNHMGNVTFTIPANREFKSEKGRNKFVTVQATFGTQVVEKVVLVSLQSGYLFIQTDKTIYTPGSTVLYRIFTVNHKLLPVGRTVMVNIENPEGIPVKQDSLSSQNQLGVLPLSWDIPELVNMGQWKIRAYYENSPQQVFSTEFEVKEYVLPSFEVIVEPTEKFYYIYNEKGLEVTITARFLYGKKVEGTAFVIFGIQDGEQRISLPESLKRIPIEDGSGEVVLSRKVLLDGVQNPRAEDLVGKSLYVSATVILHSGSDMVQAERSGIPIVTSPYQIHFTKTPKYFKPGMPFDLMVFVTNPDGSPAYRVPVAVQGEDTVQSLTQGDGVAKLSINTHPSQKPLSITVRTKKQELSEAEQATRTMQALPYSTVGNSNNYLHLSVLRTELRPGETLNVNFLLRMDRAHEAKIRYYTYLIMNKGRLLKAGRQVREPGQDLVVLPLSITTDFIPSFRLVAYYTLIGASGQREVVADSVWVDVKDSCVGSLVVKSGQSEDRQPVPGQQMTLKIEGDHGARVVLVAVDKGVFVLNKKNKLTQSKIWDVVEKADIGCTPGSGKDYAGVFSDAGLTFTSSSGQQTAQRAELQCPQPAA
T1 sequence (P01024 749-1663 partner limits assumed): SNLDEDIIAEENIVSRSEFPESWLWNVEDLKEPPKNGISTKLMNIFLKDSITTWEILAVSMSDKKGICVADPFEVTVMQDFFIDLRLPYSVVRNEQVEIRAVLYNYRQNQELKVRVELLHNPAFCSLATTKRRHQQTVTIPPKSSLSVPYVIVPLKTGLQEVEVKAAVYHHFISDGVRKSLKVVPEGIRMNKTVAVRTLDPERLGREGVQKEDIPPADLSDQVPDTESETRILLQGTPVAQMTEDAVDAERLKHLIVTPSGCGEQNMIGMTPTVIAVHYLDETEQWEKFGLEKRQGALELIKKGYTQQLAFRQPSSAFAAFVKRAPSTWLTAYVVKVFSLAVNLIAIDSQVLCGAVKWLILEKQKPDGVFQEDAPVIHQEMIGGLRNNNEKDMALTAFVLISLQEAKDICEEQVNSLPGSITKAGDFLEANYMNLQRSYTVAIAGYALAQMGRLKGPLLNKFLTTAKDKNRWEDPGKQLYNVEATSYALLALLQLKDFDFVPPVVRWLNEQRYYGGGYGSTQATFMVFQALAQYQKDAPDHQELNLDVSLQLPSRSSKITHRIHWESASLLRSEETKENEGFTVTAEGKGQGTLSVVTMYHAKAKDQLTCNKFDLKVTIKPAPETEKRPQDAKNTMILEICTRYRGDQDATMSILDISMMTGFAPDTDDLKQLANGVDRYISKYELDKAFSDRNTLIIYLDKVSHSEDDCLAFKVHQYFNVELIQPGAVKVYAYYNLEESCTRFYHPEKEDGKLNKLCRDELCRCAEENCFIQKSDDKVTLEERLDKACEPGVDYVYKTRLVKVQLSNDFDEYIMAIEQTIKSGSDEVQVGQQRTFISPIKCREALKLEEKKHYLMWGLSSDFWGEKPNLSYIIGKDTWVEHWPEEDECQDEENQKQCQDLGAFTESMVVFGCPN

[1] = Residence time in the vitreous after single intravitreal injection (WES and SPR competition assay); format: in vivo, cynomolgus monkeys
Experimental: To determine the residence time of mPEG(3 k)-Cp40, mPEG(1 k)-Cp40, Cp40-KK, and Cp40-KKK in the vitreous of cynomolgus macaques, these Cp40-based analogs were administered intravitreally (i.v.t.) to the animals after induction of light ketamine anesthesia (10-15 mg/kg, by intramuscular injection (i.m.)) and dilation of the pupils with tropicamide/phenylephrine ophthalmic solution (see Table 6 for study design).
For i.v.t. injection, the cynomolgus monkeys were anesthetized with a combination of ketamine (15-25 mg/kg, i.m.) and xylazine (2 mg/kg, i.m.) and the eye was cleaned with povidone-iodine solution. After application of oxybuprocaine hydrochloride solution (Benoxil® ophthalmic solution 0.4%) to the cornea as a local anesthetic, the Cp40-based analogs were administered to the animals by i.v.t. injection into either the right (G1, G3) or left (G2, G4) eye of each animal. Immediately following each injection, a single topical dose of 0.5% levofloxacin was administered. After i.v.t. injection of mPEG(3 k)-Cp40, mPEG(1 k)-Cp40, Cp40-KK, and Cp40-KKK, vitreous fluid samples (about 50 μL each) were withdrawn from Cp40-based analog-treated eyes on days 14, 28, 42, (G1, G2, G3, G4), 56, 73, 90 (G1, G2) (this was done either three times or six times). Samples were collected on ice and stored in a deep freezer (˜79.3 to −68.5° C.) until further analysis. […] Presence and concentration of the Cp40-based analogs was determined using either the simple western technology (WES, ProteinSimple, San Jose, CA), or surface plasmon resonance (SPR)-based real-time measurement of binding kinetics on a Cp40-KKK immobilized chip (see detailed methods below). Similar results with regard to the intravitreal residence time and concentration levels of the test compounds were obtained regardless of the quantification method selected.
To quantify the levels of all test compounds in vitreous samples collected at different time points following i.v.t. injection (see FIG. 15), WES analysis was performed on a WES instrument (ProteinSimple, San Jose, CA) using a 2 to 40 kDa Separation Module and Anti-Rabbit Detection Module according to the manufacturers' instructions. […] The resulting electropherograms were evaluated using the Compass software (ProteinSimple, San Jose, CA). The following criteria were used to discriminate low peptide signals from background: The peak signal-to-noise (S/N) ratio given by the software must be ≥10, and the peak height/baseline ratio (calculated manually from the peak height and baseline values given by the software) must be equal to or greater than 3. […] Shown in FIG. 15 is a representative standard curve generated using the WES system and bands obtained upon running pre-determined amounts of purified peptide spiked into rabbit vitreous samples. […]

purified human C3b = biological target: T2, purified human C3b (Homo sapiens, UniProt P01024); assay: SPR C3b-binding activity of compound present in vitreous samples
T2 construct: purchased Complement Technology, Inc., Tyler, TX
T2 sequence (P01024 23-667 limits assumed): as the sequence (P01024 23-667 limits assumed) above
T2 sequence (P01024 749-1663 partner limits assumed): as the sequence (P01024 749-1663 partner limits assumed) above
Experimental: To confirm that the compound present in the NHP vitreous maintains C3b-binding activity, which is a prerequisite for eliciting its inhibitory action across all complement pathways, surface plasmon resonance (SPR) binding experiments were conducted. Briefly, for a positive binding control, serial dilutions of Cp40-KKK (16, 8, 4, and 2 nM) were added to rabbit vitreous samples and flowed onto a Biacore CM5 chip immobilized with purified human C3b (Complement Technology Inc, Tyler, TX) (see FIG. 19A). Next, vitreous samples were collected from a Cp40-KKK injected eye at day 14 post-injection and subjected to heat-inactivation at 95° C. for 5 min. Both heat-inactivated and non-heat-inactivated samples were flowed onto a CM5 chip immobilized with purified human C3b as indicated above (FIG. 19B).

physchem = conditions: pH 7.4, Conc. (mg/ml), solubility in PBS
[2] = Pharmacokinetics in NHP plasma after single s.c. injection, with plasma C3 levels
[3] = NHP vitreous, day 14 post-injection

kd, dissociation constant (human C3b; 1:1 Langmuir model): 1.24 ± 0.42 10^−3s^−1
Kd (human C3b; KD=kd/ka, read-out: KD, equilibrium dissociation constant): 0.21 ± 0.09 nM
vitreous residence at C3 saturating levels ([1]; single i.v.t. 0.5 mg): ≥ 90 days
C3b-binding signal, heat-inactivated vitreous sample (purified human C3b; [3]): 10 relative units
C3b-binding signal, non-heat inactivated vitreous sample (purified human C3b; [3]): 2 relative units
solubility (physchem): > 100 mg/mL
Cp40-K fragment detectable in plasma ([2]; 4 h after s.c. injection, one monkey): ≤ 5 µM
decreased CL/F compared to Cp40 ([2]; single s.c. 2 mg/kg): ~3 fold
higher cmax than Cp40 ([2]; single s.c. 2 mg/kg): ~2 fold
increased AUC0-t compared to Cp40 ([2]; single s.c. 2 mg/kg): ~2.6 fold
plasma concentration of uncleaved Cp40-KKK at any time point ([2]; single s.c. 2 mg/kg, UPLC-ESI-MS, both animals): ≤ 2 µM
SMILES: CC[C@H](C)[C@H](NC(=O)[C@H](N)Cc1ccc(O)cc1)C(=O)N[C@H]1CSSC[C@@H](C(=O)N(C)[C@H](C(=O)N[C@@H](CCCCN)C(=O)N[C@@H](CCCCN)C(=O)N[C@@H](CCCCN)C(N)=O)[C@@H](C)CC)NC(=O)[C@H](CCCNC(=N)N)NC(=O)[C@H](Cc2c[nH]cn2)NC(=O)[C@H](C)NC(=O)CN(C)C(=O)[C@H](Cc2c[nH]c3ccccc23)NC(=O)[C@H](CC(=O)O)NC(=O)[C@H](CCC(N)=O)NC(=O)[C@H](Cc2cn(C)c3ccccc23)NC(=O)[C@H](C(C)C)NC1=O [Cp40-KKK, DTyr-Ile-[Cys-Val-Trp(Me)-Gln-Asp-Trp-Sar-Ala-His-Arg-Cys]-mlle-Lys-Lys-Lys—NH2]
detection in vitreous over time ([1]; single i.v.t. 500 μg, days 14-90): detected even at day 90 post-treatment; also recorded: remained stable during the 73-day observation period
C3b binding in vitreous (purified human C3b; spiked rabbit vitreous or injected NHP eye): binds to C3b in a dose-dependent manner; also recorded: maintains its C3b-binding activity
in vivo Lys cleavage in plasma ([2]; after s.c. injection, UPLC-ESI-MS): one or two Lys residues are cleaved from Cp40-KKK in NHP plasma, but not the third; also recorded: no Cp40 was detected in any of the plasma samples; also recorded: almost completely metabolized into Cp40-KK and small amounts of Cp40-K
CL/F, apparent clearance ([2]; single s.c. 2 mg/kg, SUM for Lys analogs, 2 mg/kg): 2483 ((mg/kg)/(μM · h) and 2921 ((mg/kg)/(μM · h)
